Measured values from ChEMBL document CHEMBL1201861, “Genomics of Drug Sensitity in Cancer screening data, Wellcome Trust Sanger Institute”.

How the values were obtained:
Type in all cases: functional, cell-based
NCI-H345 = assay: cells; conditions: Homo sapiens;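 note: growth inhibition of NCI-H345 cells measured with a cell viability assay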
Description: SANGER: Inhibition of human NCI-H345 cell growth in a cell viability assay.

A2058 = assay: cells; conditions: Homo sapiens;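 note: reduction of A2058 cell growth, read out with a viability assay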
Description: SANGER: Inhibition of human A2058 cell growth in a cell viability assay.

LB996-RCC = assay: cells; conditions: Homo sapiens
Description: SANGER: Inhibition of human LB996-RCC cell growth in a cell viability assay.

HT-1376 = assay: cells; conditions: Homo sapiens
Description: SANGER: Inhibition of human HT-1376 cell growth in a cell viability assay.

MDA-MB-134-VI = assay: cells; conditions: Homo sapiens
Description: SANGER: Inhibition of human MDA-MB-134-VI cell growth in a cell viability assay.

NCI-H2141 = assay: cells; conditions: Homo sapiens;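 note: growth inhibition of human NCI-H2141 cells, read out with a cell viability assay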
Description: SANGER: Inhibition of human NCI-H2141 cell growth in a cell viability assay.

C-33-A = assay: cells; conditions: Homo sapiens;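 note: cell viability assay measuring growth inhibition of C-33-A cells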
Description: SANGER: Inhibition of human C-33-A cell growth in a cell viability assay.

L-540 = assay: cells; conditions: Homo sapiens;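 note: growth inhibition of the human L-540 cell line, read out with a viability assay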
Description: SANGER: Inhibition of human L-540 cell growth in a cell viability assay.

CAL-51 = assay: cells; conditions: Homo sapiens;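 note: human CAL-51 cell line, growth inhibition read out via a cell viability assay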
Description: SANGER: Inhibition of human CAL-51 cell growth in a cell viability assay.

LU-165 = assay: cells; conditions: Homo sapiens
Description: SANGER: Inhibition of human LU-165 cell growth in a cell viability assay.

KYSE-510 = assay: cells; conditions: Homo sapiens;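 note: cell viability readout used to measure how strongly growth of the cell line is suppressed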
Description: SANGER: Inhibition of human KYSE-510 cell growth in a cell viability assay.

KYSE-520 cell line = assay: cells; conditions: Homo sapiens;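 note: growth inhibition of human KYSE-520 cells, read out with a viability assay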
Description: SANGER: Inhibition of human KYSE-520 cell growth in a cell viability assay.

RPMI-2650 = assay: cells; conditions: Homo sapiens
Description: SANGER: Inhibition of human RPMI-2650 cell growth in a cell viability assay.

SCC-25 = assay: cells; conditions: Homo sapiens;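 note: growth inhibition of SCC-25 cells, measured with a cell viability assay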
Description: SANGER: Inhibition of human SCC-25 cell growth in a cell viability assay.

UMUC3 = assay: cells; conditions: Homo sapiens;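 note: growth inhibition of human UM-UC-3 cells, read out with a cell viability assay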
Description: SANGER: Inhibition of human UM-UC-3 cell growth in a cell viability assay.

ARH-77 = assay: cells; conditions: Homo sapiens;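 note: growth inhibition of ARH-77 cells, read out by a cell viability assay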
Description: SANGER: Inhibition of human ARH-77 cell growth in a cell viability assay.

NCI-H2009 = assay: cells; conditions: Homo sapiens;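 note: cell viability assay measuring inhibition of NCI-H2009 cell growth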
Description: SANGER: Inhibition of human NCI-H2009 cell growth in a cell viability assay.

EFE-184 = assay: cells; conditions: Homo sapiens
Description: SANGER: Inhibition of human EFE-184 cell growth in a cell viability assay.

HT-29 = assay: cells; conditions: Homo sapiens;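 note: growth inhibition of human HT-29 cells, read out by a cell viability assay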
Description: SANGER: Inhibition of human HT-29 cell growth in a cell viability assay.

PA-1 = assay: cells; conditions: Homo sapiens;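 note: IC50 for suppression of PA-1 cell proliferation, determined with a cell viability read-out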
Description: SANGER: Inhibition of human PA-1 cell growth in a cell viability assay.

MDA-MB-468 = assay: cells; conditions: Homo sapiens
Description: SANGER: Inhibition of human MDA-MB-468 cell growth in a cell viability assay.

NCI-H1703 = assay: cells; conditions: Homo sapiens;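 note: growth inhibition of NCI-H1703 cells, read out via a cell viability assay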
Description: SANGER: Inhibition of human NCI-H1703 cell growth in a cell viability assay.

NCI-H2342 = assay: cells; conditions: Homo sapiens;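 note: growth inhibition of the cancer cell line, determined with a cell viability assay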
Description: SANGER: Inhibition of human NCI-H2342 cell growth in a cell viability assay.

TYK-nu = assay: cells; conditions: Homo sapiens;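 note: growth inhibition of human TYK-nu cells, read out by a cell viability assay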
Description: SANGER: Inhibition of human TYK-nu cell growth in a cell viability assay.

PLC-PRF-5 = assay: cells; conditions: Homo sapiens;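 note: growth inhibition of human PLC-PRF-5 cells, read out with a viability assay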
Description: SANGER: Inhibition of human PLC-PRF-5 cell growth in a cell viability assay.

RCM-1 = assay: cells; conditions: Homo sapiens;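 note: growth inhibition of the RCM-1 line, determined with a cell viability readout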
Description: SANGER: Inhibition of human RCM-1 cell growth in a cell viability assay.

PC-14 = assay: cells; conditions: Homo sapiens;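 note: cell viability assay measuring inhibition of PC-14 cell growth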
Description: SANGER: Inhibition of human PC-14 cell growth in a cell viability assay.

NCI-H2052 = assay: cells; conditions: Homo sapiens;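 note: growth inhibition of NCI-H2052 cells, read out with a cell viability assay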
Description: SANGER: Inhibition of human NCI-H2052 cell growth in a cell viability assay.

23132-87 = assay: cells; conditions: Homo sapiens
Description: SANGER: Inhibition of human 23132-87 cell growth in a cell viability assay.

A253 cell line = assay: cells; conditions: Homo sapiens;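 note: growth inhibition of A253 cells, read out with a cell viability assay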
Description: SANGER: Inhibition of human A253 cell growth in a cell viability assay.

NCI-H292 = assay: cells; conditions: Homo sapiens;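 note: growth inhibition of NCI-H292 cells, read out with a cell viability assay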
Description: SANGER: Inhibition of human NCI-H292 cell growth in a cell viability assay.

MG-63 = assay: cells; conditions: Homo sapiens;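 note: growth inhibition of human MG-63 cells, read out with a cell viability assay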
Description: SANGER: Inhibition of human MG-63 cell growth in a cell viability assay.

SK-MEL-30 = assay: cells; conditions: Homo sapiens;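 note: growth inhibition of SK-MEL-30 cells, determined with a cell viability assay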
Description: SANGER: Inhibition of human SK-MEL-30 cell growth in a cell viability assay.

P12-Ichikawa = assay: cells; conditions: Homo sapiens
Daudi = assay: cells; conditions: Homo sapiens;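 note: growth inhibition of Daudi cells, read out by a viability assay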
Description: SANGER: Inhibition of human Daudi cell growth in a cell viability assay.

647-V = assay: cells; conditions: Homo sapiens;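 note: growth inhibition of 647-V cells, read out with a cell viability assay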
Description: SANGER: Inhibition of human 647-V cell growth in a cell viability assay.

Calu-1 = assay: SANGER: Inhibition of human Calu-1 cell growth in a cell viability assay.
HuP-T3 = assay: cells; conditions: Homo sapiens;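 note: HuP-T3 cell growth inhibition, read out with a cell viability assay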
Description: SANGER: Inhibition of human HuP-T3 cell growth in a cell viability assay.

RVH-421 = assay: cells; conditions: Homo sapiens
Description: SANGER: Inhibition of human RVH-421 cell growth in a cell viability assay.

NCI-H2030 = assay: cells; conditions: Homo sapiens;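 note: growth inhibition of human NCI-H2030 cells, read out by a cell viability assay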
Description: SANGER: Inhibition of human NCI-H2030 cell growth in a cell viability assay.

PANC-03-27 = assay: cells; conditions: Homo sapiens
Description: SANGER: Inhibition of human PANC-03-27 cell growth in a cell viability assay.

SU-DHL-1 = assay: SANGER: Inhibition of human SU-DHL-1 cell growth in a cell viability assay.
NCI-H1755 = assay: cells; conditions: Homo sapiens;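 note: cell viability readout used to measure growth inhibition of NCI-H1755 cells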
Description: SANGER: Inhibition of human NCI-H1755 cell growth in a cell viability assay.

Ca-Ski = assay: cells; conditions: Homo sapiens;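 note: cell viability assay measuring inhibition of Ca-Ski cell growth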
Description: SANGER: Inhibition of human Ca-Ski cell growth in a cell viability assay.

T-24 = assay: cells; conditions: Homo sapiens;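 note: growth inhibition of T-24 cells, read out with a cell viability assay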
Description: SANGER: Inhibition of human T-24 cell growth in a cell viability assay.

BXPC-3 = assay: cells; conditions: Homo sapiens;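 note: growth inhibition of human BxPC-3 cells, read out by a cell viability assay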
Description: SANGER: Inhibition of human BxPC-3 cell growth in a cell viability assay.

SN12C = assay: cells; conditions: Homo sapiens;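 note: growth inhibition of human SN12C cells, measured by a cell viability assay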
Description: SANGER: Inhibition of human SN12C cell growth in a cell viability assay.

HCC1937 = assay: cells; conditions: Homo sapiens;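 note: growth inhibition measured with a cell viability read-out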
Description: SANGER: Inhibition of human HCC1937 cell growth in a cell viability assay.

NCI-H1694 = assay: cells; conditions: Homo sapiens;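 note: cell viability assay measuring inhibition of growth in human NCI-H1694 cells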
Description: SANGER: Inhibition of human NCI-H1694 cell growth in a cell viability assay.

IGR-1 = assay: cells; conditions: Homo sapiens;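 note: growth inhibition of human IGR-1 cells, read out with a cell viability assay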
Description: SANGER: Inhibition of human IGR-1 cell growth in a cell viability assay.

A673 = assay: cells; conditions: Homo sapiens;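 note: growth inhibition of human A673 cells, read out through a cell viability assay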
Description: SANGER: Inhibition of human A673 cell growth in a cell viability assay.

SNU-16 = assay: cells; conditions: Homo sapiens;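 note: growth inhibition of human SNU-16 cells, determined with a cell viability readout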
Description: SANGER: Inhibition of human NCI-SNU-16 cell growth in a cell viability assay.

CAL-62 = assay: cells; conditions: Homo sapiens;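 note: growth inhibition of CAL-62 cells, read out with a cell viability assay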
Description: SANGER: Inhibition of human CAL-62 cell growth in a cell viability assay.

NCI-H322M = assay: cells; conditions: Homo sapiens;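 note: cell viability assay measuring inhibition of growth of human NCI-H322M cells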
Description: SANGER: Inhibition of human NCI-H322M cell growth in a cell viability assay.

P31-FUJ = assay: cells; conditions: Homo sapiens;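 note: growth inhibition of P31-FUJ cells, read out with a viability assay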
Description: SANGER: Inhibition of human P31-FUJ cell growth in a cell viability assay.

KARPAS-422 = assay: cells; conditions: Homo sapiens
Description: SANGER: Inhibition of human KARPAS-422 cell growth in a cell viability assay.

NCI-H1734 = assay: cells; conditions: Homo sapiens;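 note: growth inhibition of human NCI-H1734 cells, read out with a cell viability assay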
Description: SANGER: Inhibition of human NCI-H1734 cell growth in a cell viability assay.

EFO-27 = assay: cells; conditions: Homo sapiens;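 note: growth inhibition of EFO-27 cells, read out with a cell viability assay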
Description: SANGER: Inhibition of human EFO-27 cell growth in a cell viability assay.

Measured: IC50

C/C(O)=C(\C#N)C(=O)Nc1cc(Br)ccc1Br
> 16000 nM: NCI-H345 | A2058 | LB996-RCC | HT-1376 | MDA-MB-134-VI | NCI-H2141 | C-33-A | L-540 | CAL-51 | LU-165 | KYSE-510 | KYSE-520 cell line | RPMI-2650 | SCC-25 | UMUC3 | ARH-77 | NCI-H2009 | EFE-184 | HT-29 | PA-1 | MDA-MB-468 | NCI-H1703 | NCI-H2342 | TYK-nu | PLC-PRF-5 | RCM-1 | PC-14 | NCI-H2052 | 23132-87 | A253 cell line | NCI-H292 | MG-63 | SK-MEL-30 | P12-Ichikawa | Daudi | 647-V | Calu-1 | HuP-T3 | RVH-421 | NCI-H2030 | PANC-03-27 | SU-DHL-1 | NCI-H1755 | Ca-Ski | T-24 | BXPC-3 | SN12C | HCC1937 | NCI-H1694 | IGR-1 | A673 | SNU-16 | CAL-62 | NCI-H322M | P31-FUJ | KARPAS-422 | NCI-H1734 | EFO-27

CC(O)(CS(=O)(=O)c1ccc(F)cc1)C(=O)Nc1ccc(C#N)c(C(F)(F)F)c1 (centres undefined) [BICALUTAMIDE]
> 1020 nM: NCI-H345 | A2058 | LB996-RCC | HT-1376 | MDA-MB-134-VI | NCI-H2141 | C-33-A | L-540 | CAL-51 | LU-165 | KYSE-510 | KYSE-520 cell line | RPMI-2650 | SCC-25 | UMUC3 | ARH-77 | NCI-H2009 | EFE-184 | HT-29 | PA-1 | MDA-MB-468 | NCI-H1703 | NCI-H2342 | TYK-nu | PLC-PRF-5 | RCM-1 | PC-14 | NCI-H2052 | 23132-87 | A253 cell line | NCI-H292 | MG-63 | SK-MEL-30 | P12-Ichikawa | Daudi | 647-V | Calu-1 | HuP-T3 | RVH-421 | NCI-H2030 | PANC-03-27 | SU-DHL-1 | NCI-H1755 | Ca-Ski | T-24 | BXPC-3 | SN12C | HCC1937 | NCI-H1694 | IGR-1 | A673 | SNU-16 | CAL-62 | NCI-H322M | P31-FUJ | KARPAS-422 | NCI-H1734 | EFO-27

CCNC(=O)c1noc(-c2cc(C(C)C)c(O)cc2O)c1-c1ccc(CN2CCOCC2)cc1 [LUMINESPIB]
99.9 nM: MDA-MB-468
53.9 nM: ARH-77
174 nM: MDA-MB-134-VI
11.6 nM: PANC-03-27
26.1 nM: KYSE-520 cell line
140 nM: KARPAS-422
27.1 nM: LB996-RCC
10.2 nM: EFO-27
14.3 nM: RPMI-2650
15.1 nM: C-33-A
138 nM: NCI-H1755
98.6 nM: HT-1376
17.1 nM: NCI-H292
61.8 nM: NCI-H1703
104 nM: NCI-H2052 | A673
43.6 nM: HT-29 | SK-MEL-30
19.3 nM: PC-14
44.6 nM: HCC1937
50.5 nM: A253 cell line
27.6 nM: NCI-H2009 | PA-1
17.6 nM: NCI-H2342
19.6 nM: RVH-421
105 nM: 23132-87
14.4 nM: KYSE-510
49.5 nM: UMUC3
136 nM: SCC-25
53.8 nM: T-24
157 nM: RCM-1
43.4 nM: BXPC-3
247 nM: SN12C
154 nM: LU-165
16.5 nM: HuP-T3
149 nM: 647-V
33.8 nM: Daudi
> 256 nM: NCI-H345 | L-540 | TYK-nu | PLC-PRF-5 | P12-Ichikawa | NCI-H1694 | SNU-16 | NCI-H322M | P31-FUJ
37.8 nM: Ca-Ski
17 nM: NCI-H2030
25.7 nM: CAL-62
18.7 nM: MG-63
32.3 nM: NCI-H1734
69.2 nM: SU-DHL-1
73.3 nM: Calu-1
3.25 nM: CAL-51
246 nM: EFE-184
238 nM: NCI-H2141
20.5 nM: IGR-1
29.3 nM: A2058
